Experimental data published in patent publication US20110111396A1, “BIOMARKERS FOR MONITORING THE TREATMENT BY QUINAZOLINONE COMPOUNDS” (priority 2007, published 2011).

Tests used:
Format in all cases: cell-based
[1] = test system: NHL cell lines (Namalwa, Rec-1, Jeko-1, Granta-519, JVM-2, DB); test: NHL cell proliferation by 3H-thymidine incorporation assay
Procedure: As detailed below, the effect of the administration of a quinazolinone compound on several types of NHL cells was determined after 3 days using 3H-thymidine incorporation, microbead array technology and real time PCR.
To better understand how the effectiveness of quinazolinone compound administration varies among different cancer cell types, the quinazolinone compound 3-(2,5-dimethyl-4-oxo-4H-quinazolin-3-yl)-piperidine-2,6-dione was tested in vitro for its anti-proliferative effect in several NHL cell lines after 3 days of treatment.
(§1) NHL cell proliferation was assessed by 3H-thymidine incorporation assay. Briefly, cells were cultured in 96 well cell culture plates in complete RPMI-1640 medium in the presence and absence of drugs. Following incubation at 37° C. for 3 days, 1μCi 3H-thymidine was added to each well for the last 5 hours of incubation. The 3H incorporation of each well was then measured. The six tested cell lines were Namalwa, Rec-1, Jeko-1, Granta-519, JVM-2, and DB.

DB cell line = test: NHL cell proliferation by 3H-thymidine incorporation assay, DB cell line; conditions: DB cells with t(14;18)
Procedure: as §1
Thus t(14;18) may be a negative prognostic factor in predicting clinical response to 3-(2,5-dimethyl-4-oxo-4H-quinazolin-3-yl)-piperidine-2,6-dione. Thus, SPARC gene expression can be used as a biomarker of NHL or MCL tumor response to quinazolinone compounds such as 3-(2,5-dimethyl-4-oxo-4H-quinazolin-3-yl)-piperidine-2,6-dione.

SPARC mRNA = SPARC mRNA level in NHL cells by real-time RT-PCR; conditions: sensitive NHL cells; 24 hours of incubation; 10 μM; FIG. 2
Procedure: The effect of the administration of 3-(2,5-dimethyl-4-oxo-4H-quinazolin-3-yl)-piperidine-2,6-dione in various NHL cells was measured after 24 hours of incubation, using real-time RT-PCR (FIG. 2).
The following exemplary procedures can be used. Upon purification of total RNA, real-time PCR is performed with 100 ng of total RNA, using an Applied Biosystems 7500 instrument (Applied Biosystems, Foster City, Calif.) using TaqMan Sequence Detection chemistry which uses a fluorogenic probe (FAM) to enable the detection of a specific PCR product as it accumulates during PCR. Samples are prepared in triplicate in 50 μl reaction volumes. […]
TaqMan® Gene Expression Assays are pre-formulated gene expression assays for rapid, reliable detection and quantification of human, mouse and rat mRNA transcripts. […] Data is analyzed using 7500 Real-Time PCR System Sequence Detection software v1.3 using the comparative CT relative quantification calculation method. The output is expressed as a fold-change of expression levels. The threshold level is selected to be automatically determined by the software and is set to be above the baseline but sufficiently low to be within the exponential growth region of an amplification curve. The cycle number at which the fluorescence signal associated with a particular amplicon accumulation crosses the threshold is referred to as the CT.

Compound	anti-proliferative activity against NHL cells ([1]; 3 days of treatment, 0.01, 0.1, 1, 10 and 100 μM, FIG. 1)	dose dependence of the anti-proliferative effect ([1]; ranges tested 0, 0.01, 0.1, 1, 10 and 100 μM, especially in MCL cell lines)	response of DB cell line (rate of cell proliferation) (DB cell line)	expression of SPARC mRNA (SPARC mRNA)	order of sensitivity of the various NHL cell lines [1]
Cc1cccc2nc(C)n(C3CCC(=O)NC3=O)c(=O)c12 (centres unmarked) [3-(2,5-dimethyl-4-oxo-4H-quinazolin-3-yl)-piperidine-2,6-dione]	demonstrated anti-proliferative activity	dose dependent	increased rate of cell proliferation	increased the expression of SPARC mRNA	
Nc1cccc2c1CN(C1CCC(=O)NC1=O)C2=O (centres unmarked) [1-oxo-2-(2,6-dioxopiperidin-3-yl)-4-aminoisoindoline, reference compound]					Namalwa (Burkitt's lymphoma)>Jeko-1>Rec-1>JVM-2>Granta-519 (all Mantle Cell Lymphomas, MCL)>DB
